# Measurements published in EP0840727B1, “3-HYDROXY-2(1H)-[…] AGENTS” (priority 1995, dated 1997).
# Read-outs that look alike come from different tables or passages of the source. Marks after values point to notes of the source that are not given here.
# Legend:
# [1] = ligand 30 µmol kg^-1 ip at 1 h after iv ^238Pu(IV) citrate, kill at 24 h, reported previously, cited from earlier work; for percent of injected ^238Pu at 24 h, excreta: feces and GI contents / percent of injected ^238Pu at 24 h, excreta: urine 0-24 h / percent of injected ^238Pu at 24 h, tissues: kidneys: pooled samples
# [2] = Promoting excretion of 238Pu(IV) in mice by injected ligands; format: in vivo; conditions: for percent of injected ^238Pu ± SD at 24 h, tissues: liver / percent of injected ^238Pu ± SD at 24 h, tissues: skeleton / percent of injected ^238Pu ± SD at 24 h, tissues: soft tissue / percent of injected ^238Pu ± SD at 24 h, whole body / percent of injected ^238Pu at 24 h, excreta: feces and GI contents / percent of injected ^238Pu at 24 h, excreta: urine 0-24 h / percent of injected ^238Pu at 24 h, tissues: kidneys: ligand 30 µmol kg^-1 ip at 1 h after iv ^238Pu(IV) citrate, kill at 24 h; for percent of injected ^238Pu at 24 h, excreta: feces and GI contents / percent of injected ^238Pu at 24 h, excreta: urine 0-24 h / percent of injected ^238Pu at 24 h, tissues: kidneys: pooled samples
# From the text: Animal studies were completed using methods detailed in Radiation Protection Dosimetry, in press, P. W. Durbin et al., "In Vivo Chelation of Am(III), Pu(IV), Np(V) and U(VI) in Mice by TREN-(Me-3,2-HOPO)"; Radiation Protection Dosimetry, 17, No. 1, 1989, p. 351, P. W. Durbin et al., "Removal of ^238Pu(IV) from Mice by Polycatechoylate, -Hydroxamate or -Hydroxypyridinonate Ligands"; Radiation Research, 99, 1984, p. 85, P. W. Durbin et al., "Specific Sequestering Agents for the Actinides ..."; Radiation Research, 99, 1984, p. 106, P. W. Durbin et al., "Removal of Pu and Am from Beagles and Mice ..."; Radiation Research, 81, 1980, p. 170, R. D. Lloyd et al., and P. W. Durbin et al., "Specific Sequestering Agents for the Actinides ...". The foregoing articles are hereby incorporated by reference.
# Radionuclides used in the animal studies came from a variety of sources. However, they can be purchased commercially. The ^238Pu(IV) citrate and ^241Am(III) citrate solutions were prepared for animal injection by 8- to 10-fold dilution with 0.14M NaCl (pH 4) of concentrated stock solutions (0.08M sodium citrate buffer) that had been held in frozen storage at Lawrence Berkeley Laboratory (hereinafter LBL) for several years. [The ^238Pu(IV) was originally obtained from D. R. Atherton at the University of Utah Radiobiology Laboratory, Salt Lake City. The ^241Am(III) solution had been obtained many years earlier from the LBL Actinide Chemistry group.]
# The novel chelating agents of the present invention and comparative compounds were tested for their effectiveness in promoting excretion ^238Pu(IV) in nice by injected ligands as follows. Mice, in groups of five, each received an intravenous injection of 1850 Bq ^238Pu(IV) in 0.2 mL of citrate buffer. One hour later, 30 µmol/kg of ligand was injected intraperitoneally in 0.5 mL of saline. The mice were killed 24 hours after the Pu injection, frozen, and dissected after partial thawing. The ^238Pu in skeleton, soft tissues, and separated excreta was determined by counting the ^234U L x-rays. Results of removal of ^238Pu(IV) from mice by injected ligands are summarized in Table 3, which also includes data for CaNa3-DTPA and other reference ligands and the Pu-injected controls. […] While the case of multidente 1,2-HOPO and catechoylamide chelating agents, octadentates are always better chelating agents than the corresponding hexadentates and tetradentates.
# [3] = In vivo acute toxicity test of injected ligands in mice
# Procedure: The test of acute toxicity of novel and comparative ligands was carried out as follows. Groups of five mice were each given a single i.p. injection of […] of ligand and a day for 10 days or given two i.p. injections of […] in 8 hours. The ligand was dissolved in 0.5 to 1.0 ml of saline at pH 7 to 8. After a period of observation, the mice were killed; selected tissues were removed and fixed for histopathological examination; and unusual findings at autopsy were recorded. […]
# [4] = protocol I, 100 µmol kg^-1 x 10 daily i.p., study length 11 d
# [5] = protocol I, 100 µmol kg^-1 x 10 daily i.p., study length 21 d
# [6] = protocol II, 500 µmol kg^-1 x 2 in 8 h, study length 11 d
# [7] = protocol IA, 100 µmol kg^-1 x 2 daily, study length 3 d
# [8] = protocol IA, 100 µmol kg^-1 x 2 daily, study length 11 d
Structure (SMILES),"percent of injected ^238Pu at 24 h, excreta: feces and GI contents [1]","percent of injected ^238Pu at 24 h, excreta: urine 0-24 h [1]","percent of injected ^238Pu at 24 h, tissues: kidneys [1]","percent of injected ^238Pu ± SD at 24 h, tissues: liver [1]","percent of injected ^238Pu ± SD at 24 h, tissues: skeleton [1]","percent of injected ^238Pu ± SD at 24 h, tissues: soft tissue [1]","percent of injected ^238Pu ± SD at 24 h, whole body [1]","percent of injected ^238Pu ± SD at 24 h, tissues: liver [2]","percent of injected ^238Pu ± SD at 24 h, tissues: skeleton [2]","percent of injected ^238Pu ± SD at 24 h, tissues: soft tissue [2]","percent of injected ^238Pu ± SD at 24 h, whole body [2]","percent of injected ^238Pu at 24 h, excreta: feces and GI contents [2]","percent of injected ^238Pu at 24 h, excreta: urine 0-24 h [2]","percent of injected ^238Pu at 24 h, tissues: kidneys [2]",other results
"O=C(NCCCN(CCCCN(CCCNC(=O)c1cccc(=O)n1O)C(=O)c1cccc(=O)n1O)C(=O)c1cccc(=O)n1O)c1cccc(=O)n1O [3,4,3-LI(1,2-HOPO)]",57% of injected ^238Pu,23% of injected ^238Pu,0.2% of injected ^238Pu,8.9 ± 1.7^d percent of injected ^238Pu,7.5 ± 0.7^d percent of injected ^238Pu,1.6 ± 0.6^d percent of injected ^238Pu,18 ± 1.7^d percent of injected ^238Pu,,,,,,,,
"O=C(NCCCCN(CCCNC(=O)c1cccc(=O)n1O)C(=O)c1cccc(=O)n1O)c1cccc(=O)n1O [3,4-LI(1,2-HOPO)]",58% of injected ^238Pu,7.9% of injected ^238Pu,0.6% of injected ^238Pu,18 ± 4.8% of injected ^238Pu,9.9 ± 3.6% of injected ^238Pu,5.8 ± 1.3% of injected ^238Pu,34 ± 9.2% of injected ^238Pu,,,,,,,,
"Cn1ccc(C(=O)NCCOCCNC(=O)c2ccn(C)c(=O)c2O)c(O)c1=O [5-LI-O-Me-3,2-HOPO, 1,5-bis[(3-hydroxy-1-methyl-2-oxo-1,2-dihydropyridin-4-yl)carboxamino]-3-oxypentane]",,,,,,,,2.1 ± 0.3^d percent of injected ^238Pu,11 ± 1.6% of injected ^238Pu,1.6 ± 0.2^d percent of injected ^238Pu,15 ± 2.1^d percent of injected ^238Pu,61.7% of injected ^238Pu,23.5% of injected ^238Pu,0.2% of injected ^238Pu,"Pu removal (in words) ([2]; injected ligands, 30 µmol/kg intraperitoneally one hour after ^238Pu(IV)): as effective or more effective than the hexadentate and octadentate chelating agents; toxicity (in words) ([3]; even at the relatively high dosage of 2x500 µmol/kg in 8 hours): low toxicity; no. of survivors [3, 4]: 5; percent control mean + SD: body weight [3, 4]: 103 ± 5 percent control; percent control mean + SD: kidney weight [3, 4]: 100 ± 19 percent control; percent control mean + SD: plasma urea N [3, 4]: 83 ± 5 percent control; no. of survivors [3, 5]: 5; percent control mean + SD: body weight [3, 5]: 101 ± 5 percent control; percent control mean + SD: kidney weight [3, 5]: 111 ± 5 percent control; percent control mean + SD: plasma urea N [3, 5]: 86 ± 18 percent control; no. of survivors [3, 6]: 10; percent control mean + SD: body weight [3, 6]: 100 ± 2 percent control; percent control mean + SD: kidney weight [3, 6]: 108 ± 10 percent control; percent control mean + SD: plasma urea N [3, 6]: 77 ± 10 percent control"
"Cn1ccc(C(=O)NCCCCCCNC(=O)c2ccn(C)c(=O)c2O)c(O)c1=O [6-LI-Me-3,2-HOPO, 1,6-bis[(3-hydroxy-1-methyl-2-oxo-1,2-dihydropyridin-4-yl)carboxamindo]hexane]",,,,,,,,6.5 ± 3.7^d percent of injected ^238Pu,12 ± 1.8% of injected ^238Pu,3.7 ± 1.8% of injected ^238Pu,23 ± 4.9^d percent of injected ^238Pu,62.9% of injected ^238Pu,14.4% of injected ^238Pu,0.5% of injected ^238Pu,"no. of survivors [3, 7]: 5; percent control mean + SD: body weight [3, 7]: 83 ± 3 percent control; percent control mean + SD: kidney weight [3, 7]: 132 ± 11 percent control; percent control mean + SD: plasma urea N [3, 7]: 343 ± 140 percent control; no. of survivors [3, 8]: 3; percent control mean + SD: body weight [3, 8]: 101 ± 5 percent control; percent control mean + SD: kidney weight [3, 8]: 112 ± 13 percent control; percent control mean + SD: plasma urea N [3, 8]: 92 ± 6 percent control"
